Measurements reported in US20070196349A1, “Whitening composition containing reduced coenzyme Q” (KANEKA CORPORATION, priority 2004, published 2007).
Marks after values point to notes of the source that are not given here.

Assays:
[1] = test system: Normal human dermal fibroblasts (NHDF); assay: Effect for protecting cells from oxidation stress in dermal fibroblasts (cellular ATP level after hydrogen peroxide); assay type: cell-based; settings: for ATP level: 1 mM hydrogen peroxide for 15 minutes
Method: Normal human dermal fibroblasts (NHDF: product of Kurabo Industries, Ltd.) were incubated in the basal medium Medium 106S (product of Kurabo Industries, Ltd.) supplemented with 2% fetal bovine serum, 10 μg/ml of heparin, 1 μg/ml of hydrocortisone, 10 ng/ml of human recombinant epidermal growth factor, and 3 ng/ml of human recombinant basic fibroblast growth factor under conditions of 37° C. and 5% CO2. After confluence, the cells were seeded onto a 96-well microplate (2.0×10^3 cells/well). In seeding, Medium 106S (product of Kurabo Industries, Ltd.) supplemented with 2% fetal bovine serum, 10 μg/ml of heparin, and 1 μg/ml of hydrocortisone was used. After 24 hours culture, the medium was exchanged to the same medium supplemented with a sample specimen, and after 24 hours, it was exchanged to Medium 106S (product of Kurabo Industries, Ltd.) supplemented with 2% fetal bovine serum, 10 μg/ml of heparin, 1 μg/ml of hydrocortisone, 7.5 μg/ml of coenzyme A, and a sample specimen in order to further culture for 48 hours. After that, the medium was removed to be exchange to the medium supplemented with 1 mM hydrogen peroxide (product of Wako Pure Chemical Industries), and then the cells were incubated for 15 minutes followed by rinsing with PBS, and cellular ATP level was determined using ATP assay kit (product of PerkinElmer) for comparison. The parametrical multiple comparison (Turkey type) was carried out in statistical processing, and the symbol “†” refers that the percentage of risk is less than 5% in comparison with the control group containing solvent only.

[2] = test system: Normal human dermal fibroblasts (NHDF); assay: Cell activation-promoting effect in dermal fibroblasts (cellular ATP level); assay type: cell-based; settings: for ATP level: 48 hours culture with sample
Method: Normal human dermal fibroblasts (NHDF: product of Kurabo Industries, Ltd.) were incubated in the basal medium Medium 106S (product of Kurabo Industries, Ltd.) supplemented with 2% fetal bovine serum, 10 μg/ml of heparin, 1 μg/ml of hydrocortisone, 10 ng/ml of human recombinant epidermal growth factor, and 3 ng/ml of human recombinant basic fibroblast growth factor under conditions of 37° C. and 5% CO2. After confluence, the cells were seeded onto a 96-well microplate (2.0×10^3 cells/well). In seeding, Medium 106S (product of Kurabo Industries, Ltd.) supplemented with 2% fetal bovine serum, 10 μg/ml of heparin, and 1 μg/ml of hydrocortisone was used. After 24 hours culture, the medium was exchanged to the same medium supplemented with a sample specimen in order to further culture for 48 hours. After that, the medium was removed and then the cells were rinsed with PBS, and cellular ATP level was determined using ATP assay kit (product of PerkinElmer) for comparison. The parametrical multiple comparison (Turkey type) was carried out in statistical processing, and the symbol “*” refers that the percentage of risk is less than 5%, and the symbol “**” refers that the percentage of risk is less than 1%, in comparison with the control group containing solvent only. In addition, the symbol “†” at the numerical value refers that the percentage of risk is less than 5% in comparison with oxidized coenzyme Q10.

brown guinea pigs = assay: Inhibitory effect on pigmentation due to ultraviolet radiation; assay type: in vivo, guinea pig; settings: average of scores (Table 1) of six brown guinea pigs, #=(L1−L0)−(L′1−L′0), sample vs medium, UVB-irradiated dorsal skin, polyethylene glycol ointment containing 10 parts by weight of reduced coenzyme Q10 applied once a day for one month
Method: The dorsal hair of six brown guinea pigs was carefully shaved with a clipper or shaver, and the shaved dorsal skin of each guinea pig was irradiated with ultraviolet beams (UVB: wavelength 250 to 350 nm) in the minimum erythema dose at two square portions of 2 cm′2 cm on the right and left of the dorsal median. The ultraviolet irradiation was performed once every other day for three days to induce erythema. Also, a medium and a sample were continuously applied to the respective irradiated portions (erythema portions) once a day for one month to examine the inhibitory action on pigmentation. As the sample, a polyethylene glycol ointment containing 10 parts by weight of reduced coenzyme Q10 was used. As the medium, only polyethylene glycol was used. Evaluation was performed by measurement with a color-difference meter, and an L value was calculated from the observed Munsell value.
Namely, DL (change with time) of the medium-applied portion was subtracted from DL (change with time) of the opposite sample-applied portion to obtain a value (#) according to the following equation: #=(L1−L0)−(L′1−L′0)
L0: Test portion before application of the sample
L′0: Test portion before application of the medium
L1: Sample-applied test portion one month after continuous application
L′1: Medium-applied test portion one month after continuous application […]

| Compound | ATP level ([1]; 8.13 μg/ml) [nM] | ATP level ([1]; 100 μg/ml) [nM] | ATP level ([2]; 0.12 μg/ml) | ATP level ([2]; 0.98 μg/ml) | cellular ATP level compared with the solvent control ([2]; result in words) | cellular ATP level compared with the solvent control ([1]; 100 μg/ml, hydrogen peroxide oxidation stress, result in words) | Average evaluation score (brown guinea pigs) | Average evaluation score (brown guinea pigs; listed as reduced coenzyme Q10) | cellular ATP level, reduced compared with oxidized coenzyme Q10 ([2]; result in words) |
| --- | --- | --- | --- | --- | --- | --- | --- | --- | --- |
| COC1=C(OC)C(=O)C(C/C=C(\C)CC/C=C(\C)CC/C=C(\C)CC/C=C(\C)CC/C=C(\C)CC/C=C(\C)CC/C=C(\C)CC/C=C(\C)CC/C=C(\C)CCC=C(C)C)=C(C)C1=O [Oxidized coenzyme Q10, oxidized coenzyme Q10, reference compound] | 82.29 ± 9.08 | 103.41 ± 1.17 | 183.23 ± 62.70 nM | 224.84 ± 43.55* nM | significantly increase the cellular ATP level |  |  |  |  |
| COc1c(O)c(C)c(C/C=C(\C)CC/C=C(\C)CC/C=C(\C)CC/C=C(\C)CC/C=C(\C)CC/C=C(\C)CC/C=C(\C)CC/C=C(\C)CC/C=C(\C)CCC=C(C)C)c(O)c1OC [Reduced coenzyme Q10, reduced coenzyme Q10] | 73.93 ± 4.96 | 112.47 ± 5.45 | 277.21 ± 46.02**† nM | 267.24 ± 20.72** nM | significantly increase the cellular ATP level | significantly increase the cellular ATP level | 2.17 | 2 (0 ≦ # < 0.5) | significantly increase the cellular ATP level |
